The structures appear in SMILES notation.

As to `CSc1c(CC(=O)O)n(Cc2ccc(Cl)cc2)c2ccc(CF)cc12`, the melting point fell in the range of 136 to 140 °C.
Next, `CCc1nc2c(N)nc3ccccc3c2n1CC1(O)CCOCC1`: greater than 250 °C.
The molecule `CCN1CCN(CCOc2cc3ncc(C#N)c(Nc4cc(OC)c(Cl)cc4Cl)c3cc2OC)CC1` came in with a melting point of 101 to 105 °C.
As for `N#Cc1cc(N)cc([N+](=O)[O-])c1`, the figure is 168 to 170 °C; as for `COC(=O)C1CCCN1S(=O)(=O)c1ccc(Cl)c(COc2cccn3c(C(C)=O)c(C)nc23)c1Cl` (configuration not stated), 178 °C; as for `O=C(OCCN1CCOCC1)c1cn2c(n1)COc1ccccc1-2`, 142 to 143 °C.
As for `O=[N+]([O-])c1cc(OC2CCCC2)c(Cl)cc1F`, the figure is 58 to 62.6 °C; as for `CCCCNc1cccnc1S(=O)(=O)NC(=O)Nc1nc(OC)cc(OC)n1`, 118 to 119 °C.
Next, `CC(C)C(NC(=O)c1ccc(C(=O)NCc2ccc([N+](=O)[O-])cc2)cc1)C(=O)N1CCCC1C(=O)NC(C(=O)C(F)(F)F)C(C)C` (mixture of isomers): 94 to 96 °C; `N#CCCNC(=O)c1cccc(-c2ccc3c(c2)C(c2ccc(Cl)cc2Cl)CCO3)c1` (configuration not stated): 154 to 155 °C; `CC(C)(C)OC(=O)N1C(=O)c2ccccc2C1=O`: 90 to 92 °C.
`CN(Cc1ccc(NC(=O)C2=Cc3cc(-c4ccc(F)cc4)ccc3S(=O)(=O)CC2)cc1)C1CCOCC1`: the melting point lay within 219 to 221 °C.
Next, `CNC(=S)n1nc(N=CN(C)C)nc1N`: 184 to 188 °C.
Turning to `CN(C)CCCOc1ccc(-c2nn(CC(=O)O)c3ncccc23)cc1`, the melting point lay in the range of 221 to 223 °C.
`O=S(=O)(CC(F)(F)F)NC(c1ccc(Cl)c2nc3n(c12)CCCN3c1c(Cl)cc(Cl)cc1Cl)C(F)(F)F` (configuration not stated) returned a melting point of 237 to 239 °C.
The molecule `CCCOc1c(Cl)cc(Cl)c2c(=O)c3ccccc3sc12` showed a melting point of 104 to 105 °C.
In turn, `N#Cc1cc2c([nH]c1=O)CCc1ccccc1-2` came in with a melting point of 301 to 303 °C.
Next, `CN(c1nnc(C(F)(F)F)s1)C1CCN(Cc2ccc(F)cc2)CC1`: 85.8 °C; `COc1ccc(N(CCCC(=O)O)C(=O)C(C)N(C(=O)c2cccc(C(F)(F)F)c2)c2ccc(OC)cc2)cc1` (configuration not stated): 119 to 121 °C; `Cn1cnc(COc2nn3c(-c4ccccc4)nnc3cc2-c2ccccc2)c1`: 199 to 202 °C.
Next, `O=C(O)Cc1ccc2c(c1)CC(CNS(=O)(=O)c1ccc3ccccc3c1)C2` (configuration not stated): 180 to 182 °C.
Take `O=CC1c2ccccc2C(C=O)c2c(Cl)cccc21` (configuration not stated): the melting point is 144 to 146 °C.
Next, `COc1ccccc1C1(O)C(O)CC(c2ccccc2)(c2ccccc2)C2CN(C(=O)Cc3ccccc3OCc3ccccc3)CC21` (configuration not stated): 158 °C.
`COc1ccc(Cc2n[nH]c3c2c(=O)n(-c2ccccc2)c2ncccc32)c(OC)c1` had a melting point of 266 to 267 °C.
With `COC(=O)c1ccc(S(C)(=O)=O)c(C=O)c1Cl`, the melting point fell in the range of 98 to 105 °C.
As for `COc1ccc2ccc(NC(=O)c3ccco3)nc2n1`, the figure is 201 °C; as for `COc1ccc(-c2cnc(N3CCc4c([nH]c5ccccc45)C3c3ccc4c(c3)OCO4)nc2)cc1` (configuration not stated), 200 to 202 °C.
As for `NC(=O)c1ccccc1NC(=O)c1cccnc1`, the figure is 220 to 222 °C; as for `O=C1NC(=O)C2(CCNCC2)N1Cc1ccccc1`, 195 to 196 °C; as for `CCOC(=O)CNC(=O)Oc1c(C)n(CC)ccc1=O`, 102 to 103 °C.
Next, `CC1(Cc2ccccc2)OC(=O)Nc2ccc(-c3cccc(Cl)c3)cc21` (configuration not stated): 187 to 188 °C; `COC(=O)c1cccc(C)c1OC(=S)N(C)C`: 94 to 96 °C; `CC(C)(S)[C@H]1C[C@H](C(=O)O)CS1` (relative stereo): 97 to 98.3 °C.
On to `CCOCCOC(=O)C(=O)Nc1nc(-c2ccc(OCC)cc2)cs1`, for which the melting point fell in the range of 139 to 140 °C.
`C=CCC1(C(=O)NCc2ccccn2)c2ccccc2-c2ccccc21` returned a melting point of 110 to 111 °C.
Molecule `CC(C)(C)OC(=O)Nc1ccc(I)cc1` yielded a melting point of 148 to 149 °C.
As for `CC(=O)Cc1nc(CN2CCCCC2)no1`, the figure is 66 to 67 °C; as for `Cc1cccc(C)c1N(CC(=O)N(C)C)C(=O)CCl`, 74 to 76 °C; as for `CCOC(=O)Cc1c(-c2ccc(Cl)cc2)nn2cc(Cl)cnc12`, 139 to 140 °C.
As for `Nc1ccc2ccc(N)nc2n1`, the figure is 222 to 223 °C; as for `C=CCc1cc(OCC(=O)OCC)ccc1O`, 52.8 °C.
`CCCCC(CC)n1nnc2c(Nc3ccc(C(C)C)cc3Br)nc(C)cc21` (configuration not stated) had a melting point of 73 to 74 °C.
Molecule `COc1ccc2c(c1)C(=O)N(C)C(C(Cl)(Cl)Cl)O2` (configuration not stated) returned a melting point of 107 to 110 °C.
`COc1cc(C(F)(F)F)sc1CN1C(=O)C2(COc3cc4c(cc32)OCO4)c2ccccc21` (configuration not stated) registered a melting point of 178 to 180 °C.
For the molecule `COc1cc2cnnc(N3CCC(=O)CC3)c2cc1OC`, the melting point fell in the range of 180 to 181 °C.
Next, `O=C1NC(=O)C(Cc2ccc(OC[C@@H]3CCCN3c3ccc4ccccc4n3)cc2)S1` (some centres not stated): 81 to 83 °C; `Cn1cc2c(n1)-c1sccc1N(C(=O)c1ccc(NC(=O)C3CCCCC3)cc1)CC2`: 240 to 242 °C; `CC(Cn1ccc(-c2ccccc2Cl)n1)C(=O)N(C)C` (configuration not stated): 87 to 88 °C.
The molecule `Cn1cc([N+](=O)[O-])cc1CO` showed a melting point of 89 to 90 °C.
In turn, `CN(C)C1CCc2[nH]c3cccc(OCc4ccccc4)c3c2C1` (configuration not stated) returned a melting point of 207 to 209 °C.
As for `COCN(c1cccc2cc(C(=O)/N=C/N(C)C)n(COC)c12)S(=O)(=O)c1cccs1`, the figure is 146 to 147 °C; as for `CCOC(=O)c1cc(O)ccc1O`, 81 to 82 °C; as for `COc1cc([C@H]2CC[C@H](c3cc(OC)c(OC)c(OC)c3)C2=O)cc(OC)c1OC` (relative stereo), 140 to 142 °C.
Next, `CC(CN(C(C)C)C(C)C)N1C(=O)/C(=N/NC(N)=O)c2ccccc21` (configuration not stated): 195 to 197 °C; `COCCNc1ccc(CN2CCN(C(c3ccccc3)c3ccccc3)CC2)cc1[N+](=O)[O-]`: 97.2 °C.
As for `O=C(Nc1ccc(F)cn1)c1ccc(NCc2ccccc2)nc1`, the figure is 167 to 168 °C; as for `COC(=O)[C@@H](C)Nc1ncccc1[N+](=O)[O-]`, 39 to 40 °C.
As for `Cc1c(CNCc2ccccc2)[nH]c(=O)c2c1ccc1nc(Nc3c(Cl)cccc3Cl)n(C)c12`, the melting point was in the range of 231 to 234 °C.
As for `CC(C)C[C@H](NC(=O)Nc1cccc2ccccc12)C(=O)NC1CCOC1O` (some centres not stated), the figure is 177 to 178 °C; as for `Cc1ccc(S(=O)(=O)OCC2Cc3cccc(C=CC(C)(C)C)c3O2)cc1` (configuration not stated), 85 to 88 °C.
Molecule `Cc1cccc(N2CCN(CCCCNC(=O)c3cc4ccccc4o3)CC2)c1` displayed a melting point of 119 to 120 °C.
Consider `CC(C)C(=O)c1c[nH]c2c(COC(=O)c3ccccc3)cccc2c1=O`, for which the melting point was 158 to 160 °C.
`CC(C)(C)COc1ccc(N(CC(=O)O)C(=O)c2cccn2-c2ccc(F)cc2)cc1C#N` returned a melting point of 140 to 143 °C.
As for `COc1cc2c(cc1Nc1ncc(Cl)c(N[C@H]3[C@@H](C(N)=O)[C@@H]4C=C[C@H]3C4)n1)CCN(CC(=O)N1CCCC1)CC2`, the melting point was 126 to 145 °C.
Next, `CN1CCC(Oc2c(F)c(F)c(F)c(F)c2F)(c2ccc(C(F)(F)F)cc2)CC1`: 45 to 48 °C; `O=S(=O)(NC(CO)CO)c1ccc(Cl)s1`: 90 to 92 °C; `CCN1c2ncc(CCc3cccc(C)c3)cc2C(=O)N(C)c2cccnc21`: 103 to 104 °C.
The molecule `Cc1c(Br)cccc1NCc1c(C(=O)O)sc2ccccc12` returned a melting point of 120 to 121 °C.
Next, `COc1ccc2c(c1)CCC1C2CCC2(C)C(NCc3ccc(O)c(OC)c3)CCC12` (configuration not stated): 169 to 170 °C; `CC1(C)CCC(C)(C)c2cc(-c3cc(-c4ccc(C(=O)N5CCOCC5)cc4)ccc3-c3ccccc3)ccc21`: 223 °C; `CC(C)(C)OC(=O)NCCNC(=O)c1nocc1-c1ccccc1`: 170 to 171 °C.
In the case of `NC1Cc2cccc3[nH]c(=O)n(c23)C1` (configuration not stated), the melting point was greater than 300 °C.
As for `N=C(Nc1ccc(CCNC(=O)C(F)(F)F)cc1)c1cccs1`, the figure is 181 to 182 °C; as for `Cc1nc(N2C[C@@H](C)N(Cc3cc(F)cc(F)c3)C2=O)sc1C(=O)NCc1ccccn1`, 147 to 148 °C.
Turning to `COC(=O)c1cc2ccc(C)cc2n1C(C)=O`, the melting point lay within 51 to 53 °C.
As for `COc1nc(C(F)(F)F)cc(=O)n1-c1cc(C(=O)OC(C)C)c(Cl)cc1F`, the figure is 121 to 123 °C; as for `CCc1cc(Oc2ccc([C@H](O)[C@@H](Cc3cccc(OC(F)(F)C(F)F)c3)NC(=O)c3cccc4c3C=CCCC4)cc2)ccc1Cl` (racemic), 116 to 117 °C; as for `Cc1ccc(CCN2CCN(c3noc4ccccc34)CC2)c2c1C(C)(C)CCN2`, 135 °C.
For the molecule `O=C(c1cccc(C(F)(F)F)c1)c1cc2cccc(Br)c2s1`, the melting point was 135 to 136 °C.
Consider `Cc1oc(-c2ccccc2)nc1CCOc1ccc(C=O)cn1`, for which the melting point is 99 to 100 °C.
The molecule `COc1cc(Nc2c(C#N)cnc3cc(/C=C/CCO[Si](C)(C)C(C)(C)C)c(OC)cc23)c(Cl)cc1Cl` returned a melting point of 97 to 99 °C.
Molecule `COc1cc(C=CC(=O)c2ccc(I)cc2O)cc(OC)c1OC` showed a melting point of 140 to 141 °C.
In turn, `c1ccc2c(c1)CNC1CC2c2ccccc21` (configuration not stated) gave a melting point of 115 to 117 °C.
As for `Cc1cc2nc(Cl)c(Cl)nc2c([N+](=O)[O-])c1Cl`, the melting point lay within 121 to 122 °C.
As for `COc1cc(NCCCCCCN2CCN(c3ccc(Cl)c(Cl)c3)CC2)c2nccc(C)c2c1`, the figure is 92 to 94 °C.
As for `CC(Br)C(=O)NC(C)(C)c1ccccc1` (configuration not stated), the figure is 102 to 103 °C; as for `O=C(c1ccc(-c2nc(C(=O)O)co2)cc1)c1cccnc1`, 281 to 282 °C.

The values are drawn from a melting point compilation (Tetko et al.; mined from patent text by program, amines drawn as free bases though some values may be those of a salt).
